Assay results reported in US10159252B2, “Fungicidal compounds and compositions” (AgroFresh Inc., priority 2015, dated 2018).
Counter-ions that a name gives are not always drawn.

What was measured:
Penicillium expansum [1] = assay: In vivo volatile bioassay on inoculated fruit (apple, pear); settings: P. expansum, 10 mg/L headspace, sublimed, 3 day treatment plus additional 3 days at 21° C.
Method: (§1) To assess the in vivo activity of volatile antimicrobial compound of Sample 1 (see Example 1) in fruit, a volatile bioassay is developed using apple, pear, orange, strawberry, grape and blueberry. Two apples, two oranges, two pears, eight strawberries, sixteen grapes or thirty blueberries (per rep, in duplicate) are placed in a clamshell with the stem end facing up for all fruits except for strawberry (stem end facing downwards). A fresh wound is inoculated with 20 μL 1×10^6 per mL Penicillium expansum (P. expansum) spore suspension (apple and pear), 20 μL×1×10^6 per mL Penicillium digitatum (P. digitatum) spore suspension (orange), and 20 μL×1×10^6 (strawberry and grape) or 10 μL (blueberry) of 1×10^5 per mL Botrytis cinerea (B. cinerea) spore suspension. The clamshells are placed inside a 117 L Rubbermaid storage box (Cat #2244), and the lids closed.
(§2) Sample 1, prepared according to Example 1 and dissolved in acetone, is pipetted onto a cotton strip, where the acetone is allowed to evaporate for 5 min, and then introduced into the container by a sublimation device (copper tube heated to 200° C. with fan flow at 0.5 liters per minute (L/min)) to achieve a final headspace concentration of 10 mg/L). The containers are then held for 3 d at 21° C. After treatment, the fruits are held for an additional 3 d at 21° C., then evaluated for disease incidence (millimeter (mm) diameter of browning or water-soaked lesions) and pathogen sporulation (mm diameter) for apple, pear and orange, as well as Botrytis cinerea disease incidence (%) and severity (0 to 4) for strawberry, grape and blueberry. Results are summarized in Table 2 showing good in vivo antimicrobial control of three fungal pathogens on six different hosts when applied as a volatile fungicide. Results are also depicted in FIG. 1.

Botrytis cinerea [2] = assay: In vivo volatile bioassay on inoculated fruit (strawberry, grape, blueberry); settings: B. cinerea, 10 mg/L headspace, sublimed, 3 day treatment plus additional 3 days at 21° C.
Method: as §1, §2

Penicillium digitatum = assay: In vivo volatile bioassay on inoculated fruit (orange); settings: P. digitatum, 10 mg/L headspace, sublimed, 3 day treatment plus additional 3 days at 21° C.
Source text: To assess the in vivo activity of volatile antimicrobial compound of Sample 1 (see Example 1) in fruit, a volatile bioassay is developed using apple, pear, orange, strawberry, grape and blueberry. Two apples, two oranges, two pears, eight strawberries, sixteen grapes or thirty blueberries (per rep, in duplicate) are placed in a clamshell with the stem end facing up for all fruits except for strawberry (stem end facing downwards). […]
as §2, with “The containers are then held for 3 d at 21° C.” left out, “Results are summarized in Table 2 showing good in vivo antimicrobial control of three fungal pathogens on six different hosts when applied as a volatile fungicide. Results are also depicted in FIG. 1.” left out

Botrytis cinerea [3] = assay: In vitro volatile inhibition assay, 12-well plate, half-strength PDA; type: cell-based; settings: B. cinerea, 3 d at 23° C.; for percent growth relative to control: volatile
Method: (§3) A 12-well microtiter plate (6.5 milliliter (mL) volume per well) is used for the in vitro inhibition assay for volatile antimicrobial compound of Sample 1 (see Example 1) against two plant fungal pathogens. A 3-mL volume of half-strength Potato Dextrose Agar (PDA) is added to each well. After cooling, 1 microliter (μL) of 1×10^5 spores per mL of Botrytis cinerea (B. cinerea) or Penicillium expansum (P. expansum) suspension is spotted to the center of the agar. A Whatman #1 filter disk (Cat. No. 1001-0155) is placed, in duplicate, on the underside of a polyethylene polymerase chain reaction (PCR) plate sealing film.
(§4) For determination of the minimum inhibitory concentration (MIC), the test compound is diluted in acetone, and the appropriate amount of compound added to disks in a dose dependent manner to achieve a final headspace concentration of 35.7 to 0.03 milligrams per liter (mg/L). The acetone is permitted to evaporate for 5 min. The headspace around the inoculum is then sealed inside the well by the film with the adhering disk containing the fungicide. The plates are inverted, placed over the treated disks and sealed to prevent any of the chemical from flaking from the disk and falling onto the inoculated agar. After 3 days (d) of storage at 23° C., cultures are evaluated for percent growth relative to control. Results are summarized in Table 1 showing the ability of benzoxaborole compound of Sample 1 to control the growth of two fungal plant pathogens through volatile activity.

Penicillium expansum [4] = assay: as above; type: cell-based; settings: P. expansum, 3 d at 23° C.; for percent growth relative to control: volatile
Method: as §3, §4

[5] = headspace concentration 0.03 mg/L
[6] = headspace concentration 0.07 mg/L
[7] = headspace concentration 0.1 mg/L
[8] = headspace concentration 0.3 mg/L
[9] = headspace concentration 0.6 mg/L
[10] = headspace concentration 1.1 mg/L
[11] = headspace concentration 2.2 mg/L
[12] = headspace concentration 4.5 mg/L
[13] = headspace concentration 8.9 mg/L
[14] = headspace concentration 17.9 mg/L
[15] = headspace concentration 35.7 mg/L
[16] = Botrytis cinerea, 72 h, applied as a volatile fungicide, headspace concentration
[17] = Penicillium expansum, 72 h, applied as a volatile fungicide, headspace concentration

Fc1ccc2c(c1)CO[B-]2(F)F [Sample 1, potassium 1,1,5-trifluoro-1,3-dihydro-2,1-benzoxaborolate salt]
Browning (mm) (Penicillium expansum [1]; Apple): 4.8 mm | Sporulation (mm) (Penicillium expansum [1]; Apple): 7.3 mm | Browning (mm) (Penicillium expansum [1]; Pear): 5.3 mm | Sporulation (mm) (Penicillium expansum [1]; Pear): 4.3 mm | Incidence (%) (Botrytis cinerea [2]; Blueberry): 5.0% | Severity (0-4) (Botrytis cinerea [2]; Blueberry): 0.06 | Incidence (%) (Botrytis cinerea [2]; Grape): 23.3% | Severity (0-4) (Botrytis cinerea [2]; Grape): 0.12 | Incidence (%) (Botrytis cinerea [2]; Strawberry): 6.3% | Severity (0-4) (Botrytis cinerea [2]; Strawberry): 0.03 | Sporulation (mm) (Penicillium digitatum): 0.0 mm | Water soaked lesion (mm) (Penicillium digitatum): 12.7 mm | percent growth relative to control (Botrytis cinerea [3]; [5]): 0% | percent growth relative to control (Botrytis cinerea [3]; [6]): 0% | percent growth relative to control (Botrytis cinerea [3]; [7]): 0% | percent growth relative to control (Botrytis cinerea [3]; [8]): 0% | percent growth relative to control (Botrytis cinerea [3]; [9]): 64.8% | percent growth relative to control (Botrytis cinerea [3]; [10]): 100% | percent growth relative to control (Botrytis cinerea [3]; [11]): 100% | percent growth relative to control (Botrytis cinerea [3]; [12]): 100% | percent growth relative to control (Botrytis cinerea [3]; [13]): 100% | percent growth relative to control (Botrytis cinerea [3]; [14]): 100% | percent growth relative to control (Botrytis cinerea [3]; [15]): 100% | EC50 (Botrytis cinerea [3]; [16]): 0.5 µg/mL | MIC (Botrytis cinerea [3]; [16]): 1.1 µg/mL | percent growth relative to control (Penicillium expansum [4]; [5]): −2.7% | percent growth relative to control (Penicillium expansum [4]; [6]): −1.9% | percent growth relative to control (Penicillium expansum [4]; [7]): −3.3% | percent growth relative to control (Penicillium expansum [4]; [8]): −8.2% | percent growth relative to control (Penicillium expansum [4]; [9]): 12.9% | percent growth relative to control (Penicillium expansum [4]; [10]): 56.2% | percent growth relative to control (Penicillium expansum [4]; [11]): 73% | percent growth relative to control (Penicillium expansum [4]; [12]): 100% | percent growth relative to control (Penicillium expansum [4]; [13]): 100% | percent growth relative to control (Penicillium expansum [4]; [14]): 100% | percent growth relative to control (Penicillium expansum [4]; [15]): 100% | EC50 (Penicillium expansum [4]; [17]): 1.2 µg/mL | MIC (Penicillium expansum [4]; [17]): 4.5 µg/mL
